In brackets after ≈: the same amount, converted by molar mass.
Tests used:
N. gonorrhoeae CDC-0197 = assay: Liquid broth MIC in Fastidious broth; details: Neisseria gonorrhoeae, CDC0197, read-out: Minimum Inhibitory Concentration (MIC), N. gonorrhoeae CDC-0197
N. gonorrhoeae WHO Q = assay: Liquid broth MIC in Fastidious broth; details: Neisseria gonorrhoeae, read-out: Minimum Inhibitory Concentration (MIC), N. gonorrhoeae WHO Q
P. aeruginosa ATCC 27853 = assay: microbe, parasite or virus in culture; type: cell-based; details: Pseudomonas aeruginosa, ATCC27853, read-out: MIC P. aeruginosa ATCC 27853
[1] = system: N. gonorrhoeae ATCC 49226; assay: Liquid broth MIC in Fastidious broth; details: Neisseria gonorrhoeae, ATCC49226, read-out: Minimum Inhibitory Concentration (MIC), N. gonorrhoeae ATCC 49226
N. gonorrhoeae FA1090 = assay: Liquid broth MIC in Fastidious broth; details: Neisseria gonorrhoeae, FA1090, read-out: Minimum Inhibitory Concentration (MIC), N. gonorrhoeae FA 1090
K. pneumoniae 848844 = assay: microbe, parasite or virus in culture; type: cell-based; details: Klebsiella pneumoniae, 848844, read-out: MIC K. pneumoniae 848844
A. baumannii ATCC 19606 = assay: microbe, parasite or virus in culture; type: cell-based; details: Acinetobacter baumannii, ATCC19606, read-out: MIC, A. baumannii ATCC 19606
K. pneumoniae SI-117 = assay: microbe, parasite or virus in culture; type: cell-based; details: Klebsiella pneumoniae, SI117, read-out: MIC K. pneumoniae SI-117
K. pneumoniae UMM = assay: microbe, parasite or virus in culture; type: cell-based; details: Klebsiella pneumoniae, read-out: MIC K. pneumoniae UMM
E. coli ATCC 25922 = assay: microbe, parasite or virus in culture; type: cell-based; details: Escherichia coli, ATCC25922, read-out: MIC E. coli 25922
P. aeruginosa ATCC 35151 = assay: microbe, parasite or virus in culture; type: cell-based; details: Pseudomonas aeruginosa, ATCC35151, read-out: MIC P. aeruginosa ATCC 35151
[2] = molecular target: T1, PBP3 from Pseudomonas aeruginosa (PAO1) (Pseudomonas aeruginosa, UniProt G3XD46); assay: Bocillin-FL fluorescence polarization competition binding, P. aeruginosa PBP3; details: Binding affinity to P. aeruginosa PBP3; fluorescence polarization competition binding assay using Bocillin-FL; read-out: P. aeruginosa PBP3 Potency
T1 construct: made in house
T1 sequence (G3XD46 whole entry): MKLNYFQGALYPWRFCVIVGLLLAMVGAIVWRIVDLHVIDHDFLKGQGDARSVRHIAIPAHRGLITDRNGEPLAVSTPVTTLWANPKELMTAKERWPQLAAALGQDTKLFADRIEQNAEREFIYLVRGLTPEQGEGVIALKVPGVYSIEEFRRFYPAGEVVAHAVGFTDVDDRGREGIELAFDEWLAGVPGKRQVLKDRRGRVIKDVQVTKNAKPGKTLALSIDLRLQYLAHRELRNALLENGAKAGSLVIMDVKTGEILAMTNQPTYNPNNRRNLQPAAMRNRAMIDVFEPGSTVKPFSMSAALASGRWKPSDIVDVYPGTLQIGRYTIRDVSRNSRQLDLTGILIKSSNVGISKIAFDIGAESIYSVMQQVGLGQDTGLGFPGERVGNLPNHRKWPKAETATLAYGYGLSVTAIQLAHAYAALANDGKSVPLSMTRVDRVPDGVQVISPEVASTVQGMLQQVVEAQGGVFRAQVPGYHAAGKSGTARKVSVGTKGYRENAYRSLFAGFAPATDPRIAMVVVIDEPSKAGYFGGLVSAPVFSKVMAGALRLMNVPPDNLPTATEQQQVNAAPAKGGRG
Outline: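 Purified PBP was preincubated with inhibitor (E. coli PBP3 1.5 μM, 30 min; P. aeruginosa PBP3 0.75 μM, A. baumannii PBP3 0.2 μM and PBP1a 1 μM, 15 min), then Bocillin-FL (0.1 μM; 0.05 μM for PBP1a) added and FP read up to 60 min. EC50 = 50% loss of bound probe.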

N. gonorrhoeae WHO L = assay: Liquid broth MIC in Fastidious broth; details: Neisseria gonorrhoeae, read-out: Minimum Inhibitory Concentration (MIC), N. gonorrhoeae WHO L
E. coli AG100A = assay: Broth microdilution MIC in CAMHB; type: cell-based; details: Escherichia coli, read-out: MIC E. coli AG100A
E. coli 901C = assay: microbe, parasite or virus in culture; type: cell-based; details: Escherichia coli, read-out: MIC E. coli 901C
N. gonorrhoeae WHO K = assay: Liquid broth MIC in Fastidious broth; details: Neisseria gonorrhoeae, read-out: Minimum Inhibitory Concentration (MIC), N. gonorrhoeae WHO K

Row | Compound | MIC (N. gonorrhoeae CDC-0197) [µg/mL] | MIC (N. gonorrhoeae WHO Q) [µg/mL] | MIC (P. aeruginosa ATCC 27853) [µg/mL] | MIC [1] [µg/mL] | MIC (N. gonorrhoeae FA1090) [µg/mL] | MIC (K. pneumoniae 848844) [µg/mL] | MIC (A. baumannii ATCC 19606) [µg/mL] | MIC (K. pneumoniae SI-117) [µg/mL] | MIC (K. pneumoniae UMM) [µg/mL] | MIC (E. coli ATCC 25922) [µg/mL] | MIC (P. aeruginosa ATCC 35151) [µg/mL] | IC50 [2] [µM] | MIC (N. gonorrhoeae WHO L) [µg/mL] | MIC (E. coli AG100A) [µg/mL] | MIC (E. coli 901C) [µg/mL] | MIC (N. gonorrhoeae WHO K) [µg/mL]
1 | O=C(O)c1cccc2c1OB(O)[C@@H](NC(=O)C(NC(=O)c1cnc[nH]c1=O)c1ccc(P(=O)(O)O)cc1)C2 (stereo partly drawn) [Example 176, (3R)-2-hydroxy-3-(2-(6-oxo-1,6-dihydropyrimidine-5-carboxamido)-2-(4-phosphonophenyl)acetamido)-3,4-dihydro-2H-benzo[e][1,2]oxaborinine-8-carboxylic acid] | 16 to 32 (≈ 29.5 to 59 µM) | 16 to 32 (≈ 29.5 to 59 µM) | 32 to 64 (≈ 59 to 118 µM) | 4 to 8 (≈ 7.38 to 14.8 µM) | 1 to 2 (≈ 1.84 to 3.69 µM) | > 128 | > 128 | > 128 | > 128 | > 128 | 2 to 4 (≈ 3.69 to 7.38 µM) | < 10 | 16 to 32 (≈ 29.5 to 59 µM) | > 128 | 8 to 16 (≈ 14.8 to 29.5 µM) | 16 to 32 (≈ 29.5 to 59 µM)
2 | N#Cc1ccnc(C(=O)NC(C(=O)N[C@H]2Cc3cccc(C(=O)O)c3OB2O)c2ccc(P(=O)(O)O)cc2)c1 (stereo partly drawn) [Example 179, (3R)-3-(2-(4-cyanopicolinamido)-2-(4-phosphonophenyl)acetamido)-2-hydroxy-3,4-dihydro-2H-benzo[e][1,2]oxaborinine-8-carboxylic acid] | 16 to 32 (≈ 29.1 to 58.2 µM) | 16 to 32 (≈ 29.1 to 58.2 µM) | > 128 | 16 to 32 (≈ 29.1 to 58.2 µM) | 1 to 2 (≈ 1.82 to 3.63 µM) | > 128 | > 128 | > 128 | > 128 | > 128 | 2 to 4 (≈ 3.63 to 7.27 µM) | < 10 | 16 to 32 (≈ 29.1 to 58.2 µM) | > 128 | 8 to 16 (≈ 14.5 to 29.1 µM) | 16 to 32 (≈ 29.1 to 58.2 µM)
3 | N#Cc1cccc(C(=O)N[C@@H](C(=O)N[C@H]2Cc3cccc(C(=O)O)c3OB2O)c2ccc(P(=O)(O)O)cc2)n1 [Example 180, (R)-3-((R)-2-(6-cyanopicolinamido)-2-(4-phosphonophenyl)acetamido)-2-hydroxy-3,4-dihydro-2H-benzo[e][1,2]oxaborinine-8-carboxylic acid] | < 1 | 1 to 2 (≈ 1.82 to 3.63 µM) | > 128 | < 1 | < 1 | > 128 | > 128 | > 128 | > 128 | > 128 | 2 to 4 (≈ 3.63 to 7.27 µM) | < 10 | 4 to 8 (≈ 7.27 to 14.5 µM) | 8 to 16 (≈ 14.5 to 29.1 µM) | < 1 | 1 to 2 (≈ 1.82 to 3.63 µM)
4 | O=C(O)c1cccc2c1OB(O)[C@@H](NC(=O)C(NC(=O)c1ncccc1Cl)c1ccc(P(=O)(O)O)cc1)C2 (stereo partly drawn) [Example 183, (3R)-3-(2-(3-chloropicolinamido)-2-(4-phosphonophenyl)acetamido)-2-hydroxy-3,4-dihydro-2H-benzo[e][1,2]oxaborinine-8-carboxylic acid] | 16 to 32 (≈ 28.6 to 57.2 µM) | 16 to 32 (≈ 28.6 to 57.2 µM) | > 128 | 4 to 8 (≈ 7.15 to 14.3 µM) | 1 to 2 (≈ 1.79 to 3.57 µM) | > 128 | > 128 | > 128 | > 128 | > 128 | 8 to 16 (≈ 14.3 to 28.6 µM) | < 10 | 16 to 32 (≈ 28.6 to 57.2 µM) | > 128 | 8 to 16 (≈ 14.3 to 28.6 µM) | 16 to 32 (≈ 28.6 to 57.2 µM)
5 | O=C(NC(C(=O)N[C@H]1Cc2cccc(C(=O)O)c2OB1O)c1ccc(P(=O)(O)O)cc1)c1ccc(Cl)cn1 (stereo partly drawn) [Example 184, (3R)-3-(2-(5-chloropicolinamido)-2-(4-phosphonophenyl)acetamido)-2-hydroxy-3,4-dihydro-2H-benzo[e][1,2]oxaborinine-8-carboxylic acid] | < 1 | 1 to 2 (≈ 1.79 to 3.57 µM) | > 128 | < 1 | < 1 | > 128 | > 128 | > 128 | > 128 | > 128 | 2 to 4 (≈ 3.57 to 7.15 µM) | < 10 | 4 to 8 (≈ 7.15 to 14.3 µM) | 32 to 64 (≈ 57.2 to 114 µM) | < 1 | 1 to 2 (≈ 1.79 to 3.57 µM)
6 | NC(=O)c1ccc(C(=O)NC(C(=O)N[C@H]2Cc3cccc(C(=O)O)c3OB2O)c2ccc(P(=O)(O)O)cc2)nc1 (stereo partly drawn) [Example 188, (3R)-3-(2-(5-carbamoylpicolinamido)-2-(4-phosphonophenyl)acetamido)-2-hydroxy-3,4-dihydro-2H-benzo[e][1,2]oxaborinine-8-carboxylic acid] | 1 to 2 (≈ 1.76 to 3.52 µM) | 1 to 2 (≈ 1.76 to 3.52 µM) | > 128 | < 1 | < 1 | > 128 | > 128 | > 128 | > 128 | > 128 | 8 to 16 (≈ 14.1 to 28.2 µM) | < 10 | 4 to 8 (≈ 7.04 to 14.1 µM) | > 128 | < 1 | 1 to 2 (≈ 1.76 to 3.52 µM)
7 | CCN1CCN(C(=O)NC(C(=O)N[C@H]2Cc3cccc(C(=O)O)c3OB2O)c2ccc(S(=O)(=O)O)cc2)C(=O)C1=O (stereo partly drawn) [Example 189, (3R)-3-(2-(4-ethyl-2,3-dioxopiperazine-1-carboxamido)-2-(4-sulfophenyl)acetamido)-2-hydroxy-3,4-dihydro-2H-benzo[e][1,2]oxaborinine-8-carboxylic acid] | 1 to 2 (≈ 1.7 to 3.4 µM) | 1 to 2 (≈ 1.7 to 3.4 µM) | > 128 | < 1 | < 1 | > 128 | > 128 | > 128 | 32 to 64 (≈ 54.4 to 109 µM) | > 128 | < 1 | < 10 | 4 to 8 (≈ 6.8 to 13.6 µM) | 8 to 16 (≈ 13.6 to 27.2 µM) | < 1 | 1 to 2 (≈ 1.7 to 3.4 µM)

From patent US20240270762A1, “PENICILLIN-BINDING PROTEIN INHIBITORS” (priority 2021, published 2024)
